# Patent publication US20020114822A1, “Attractants for yellow jackets” (priority 2000, published 2002)
# Tested on: yellow jackets indigenous to the west coast (V. pensylvanica)
# Assay: Trials B: trap catch on the west coast, preferred formulation against heptyl butyrate formulations
# Format: in vivo
# Conditions: average of two trials of each formulation
# Excerpt: In the Examples and reported test results that follow, traps were usually hung in trees approximately four to six feet above the ground. A number of traps were used in each area where tests were made and the traps were spaced anywhere from fifteen to fifty feet apart. The traps used were commercially available traps generally of the top opening lid variety. Holes were made in the lids which were large enough to allow a yellow jacket to crawl inside the trap but small enough to confuse the yellow jackets in finding their way out. A trap of this kind is commercially available from Woodstream, Inc. sold under its trade name Yellow Jacket Trap®. The “vinegar” used in the examples was a vinegar as defined by FDA being a 5% acetic acid solution derived from apples. The “preferred formulation” used in the below reported trials was comprised of 58% apple juice concentrate; 36% vinegar; 5% poultry liver; and 1% dish detergent. Test were conducted on the west coast to compare the effectiveness of the preferred formulation of the invention with commercial formulations containing heptyl butyrate. Two trials of each formulation were made and the numbers indicate the average number of yellow jackets caught in the trials. […]
smiles,measurement,value
CCCCCCCOC(=O)CCC [Heptyl Butyrate],average number of yellow jackets caught,64
